Measurements as given in patent US20250230193A1, “CYCLIC COMPOUND HAVING SELECTIVE KRAS INHIBITORY EFFECT ON HRAS AND NRAS” (CHUGAI SEIYAKU KABUSHIKI KAISHA, priority 2022, published 2025).

Experiments:
[1] = target: GDP-bound HRAS wild-type protein (Homo sapiens, UniProt P01112); experiment: Binding to HRAS by surface plasmon resonance (SPR), Single Cycle Kinetics; settings: SPR, GDP-bound HRAS wild-type vs GDP-bound KRAS wild-type
[2] = target: GDP-bound NRAS wild-type protein (Homo sapiens, UniProt P01111); experiment: Binding to NRAS by surface plasmon resonance (SPR), Single Cycle Kinetics; settings: SPR, GDP-bound NRAS wild-type vs GDP-bound KRAS wild-type
Chain of GDP-bound NRAS wild-type protein (P01111 whole entry): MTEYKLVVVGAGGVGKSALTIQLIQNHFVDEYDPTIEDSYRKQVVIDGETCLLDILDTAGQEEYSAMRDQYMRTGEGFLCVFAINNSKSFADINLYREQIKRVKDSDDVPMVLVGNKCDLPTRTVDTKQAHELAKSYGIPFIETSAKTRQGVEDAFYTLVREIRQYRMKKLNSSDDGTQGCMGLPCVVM

Chain of GDP-bound HRAS wild-type protein (P01112 whole entry): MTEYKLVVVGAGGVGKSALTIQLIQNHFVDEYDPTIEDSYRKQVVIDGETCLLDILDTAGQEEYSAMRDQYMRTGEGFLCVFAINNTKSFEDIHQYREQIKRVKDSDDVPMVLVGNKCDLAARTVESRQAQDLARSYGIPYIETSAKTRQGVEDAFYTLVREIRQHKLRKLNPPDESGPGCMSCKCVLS

Row | Structure (SMILES) | HRAS/KRAS (ratio of KD value with respect to HRAS to KD value with respect to KRAS) [1] | NRAS/KRAS (ratio of KD value with respect to NRAS to KD value with respect to KRAS) [2]
1 | C=CCN1CC(=O)N(C)[C@H]2C/C=C\CCN(C2=O)[C@@H](Cc2ccc(C(F)(F)F)cc2)C(=O)N(C)CC(=O)N[C@@H](CCc2cc(F)c(C(F)(F)F)c(F)c2)C(=O)N2C[C@H](OCC)C[C@H]2C(=O)NC2(CC(C)(C)C2)C(=O)N(C)[C@@H](C2CCCC2)C(=O)N(C)[C@H](C(=O)N(C)C)CC(=O)N(C)[C@@H](CCC)C(=O)N[C@@H]([C@@H](C)CC)C1=O [PP2102] | A (a compound having 10 or more and less than 20 is denoted as A) | A (a compound having 10 or more and less than 20 is denoted as A)
2 | C#CCN1CC(=O)N(C)[C@H]2C/C=C\CCN(C2=O)[C@@H](Cc2ccc(C(F)(F)F)cc2)C(=O)N(C)CC(=O)N[C@@H](CCc2cc(F)c(C(F)(F)F)c(F)c2)C(=O)N2C[C@H](OCC)C[C@H]2C(=O)NC2(CC(C)(C)C2)C(=O)N(C)[C@@H](C2CCCC2)C(=O)N(C)[C@H](C(=O)N(C)C)CC(=O)N(C)[C@@H](CCC)C(=O)N[C@@H]([C@@H](C)CC)C1=O [PP2103] | A (a compound having 10 or more and less than 20 is denoted as A) | A (a compound having 10 or more and less than 20 is denoted as A)
3 | CCC[C@H]1C(=O)N[C@@H]([C@@H](C)CC)C(=O)N(C2CC2)CC(=O)N(C)[C@H]2C/C=C\CCN(C2=O)[C@@H](Cc2ccc(C(F)(F)F)cc2)C(=O)N(C)CC(=O)N[C@@H](CCc2ccc(C(F)(F)F)c(OC)c2)C(=O)N2C[C@H](OCC)C[C@H]2C(=O)NC2(CC(C)(C)C2)C(=O)N(C)[C@@H](C2CCCC2)C(=O)N(C)[C@H](C(=O)N(C)C)CC(=O)N1C [PP2105] | A (a compound having 10 or more and less than 20 is denoted as A) | A (a compound having 10 or more and less than 20 is denoted as A)
4 | C=CCN1CC(=O)N(C)[C@H]2C/C=C\CCN(C2=O)[C@@H](Cc2ccc(C(F)(F)F)cc2)C(=O)N(C)CC(=O)N[C@@H](CCc2ccc(C(F)(F)F)c(OC)c2)C(=O)N2C[C@H](OCC)C[C@H]2C(=O)NC2(CC(C)(C)C2)C(=O)N(C)[C@@H](C2CCCC2)C(=O)N(C)[C@H](C(=O)N(C)C)CC(=O)N(C)[C@@H](CCC)C(=O)N[C@@H]([C@@H](C)CC)C1=O [PP2106] | A (a compound having 10 or more and less than 20 is denoted as A) | A (a compound having 10 or more and less than 20 is denoted as A)
5 | C#CCN1CC(=O)N(C)[C@H]2C/C=C\CCN(C2=O)[C@@H](Cc2ccc(C(F)(F)F)cc2)C(=O)N(C)CC(=O)N[C@@H](CCc2ccc(C(F)(F)F)c(OC)c2)C(=O)N2C[C@H](OCC)C[C@H]2C(=O)NC2(CC(C)(C)C2)C(=O)N(C)[C@@H](C2CCCC2)C(=O)N(C)[C@H](C(=O)N(C)C)CC(=O)N(C)[C@@H](CCC)C(=O)N[C@@H]([C@@H](C)CC)C1=O [PP2107] | A (a compound having 10 or more and less than 20 is denoted as A) | A (a compound having 10 or more and less than 20 is denoted as A)
6 | CCC[C@H]1C(=O)N[C@@H]([C@@H](C)CC)C(=O)N(CCC)CC(=O)N(C)[C@H]2C/C=C\CCN(C2=O)[C@@H](Cc2ccc(C)cc2)C(=O)N(C)CC(=O)N[C@@H](CCc2cc(F)c(C(F)(F)F)c(F)c2)C(=O)N2C[C@H](OCC)C[C@H]2C(=O)NC2(CC(C)(C)C2)C(=O)N(C)[C@@H](C2CCCC2)C(=O)N(C)[C@H](C(=O)N(C)C)CC(=O)N1C [PP2108] | A (a compound having 10 or more and less than 20 is denoted as A) | A (a compound having 10 or more and less than 20 is denoted as A)
7 | CCO[C@@H]1C[C@H]2C(=O)NC3(CC(C)(C)C3)C(=O)N(C)[C@@H](C3CCCC3)C(=O)N(C)[C@H](C(=O)N(C)C)CC(=O)N(C)[C@@H](CC(C)C)C(=O)N[C@@H]([C@@H](C)CC)C(=O)N(C3CC3)CC(=O)N(C)[C@H]3C/C=C\CCN(C3=O)[C@@H](Cc3ccc(C)cc3)C(=O)N(C)CC(=O)N[C@@H](CCc3cc(F)c(C(F)(F)F)c(F)c3)C(=O)N2C1 [PP2109] | A (a compound having 10 or more and less than 20 is denoted as A) | A (a compound having 10 or more and less than 20 is denoted as A)
8 | CCO[C@@H]1C[C@H]2C(=O)NC3(CCC3)C(=O)N(C)[C@@H](C3CCCC3)C(=O)N(C)[C@H](C(=O)N(C)CC)CC(=O)N(C)[C@H]3CCCCCc4ccc(cc4)C[C@@H](C(=O)N(C)CC(=O)N[C@@H](CCc4ccc(C(F)(F)F)c(OC)c4)C(=O)N2C1)N1CC/C=C\C[C@@H](C1=O)N(C)C(=O)CN(C)C(=O)[C@H]([C@@H](C)CC)NC3=O [PP2118] | B (a compound having 3 or more and less than 10 is denoted as B) | A (a compound having 10 or more and less than 20 is denoted as A)
9 | CCO[C@@H]1C[C@H]2C(=O)NC3(CC(C)(C)C3)C(=O)N(C)[C@@H](C(CC)CC)C(=O)N(C)[C@H](C(=O)N(C)C)CC(=O)N(C)[C@@H](CC3CC3)C(=O)N[C@@H]([C@@H](C)CC)C(=O)N(C)CC(=O)N(C)[C@H]3C/C=C\CCN(C3=O)[C@@H](Cc3ccc(C(F)(F)F)cc3)C(=O)N(C)CC(=O)N[C@@H](CCc3cc(F)c(C(F)(F)F)c(F)c3)C(=O)N2C1 [PP2119] | B (a compound having 3 or more and less than 10 is denoted as B) | A (a compound having 10 or more and less than 20 is denoted as A)
10 | CCO[C@@H]1C[C@H]2C(=O)NC3(CC(C)(C)C3)C(=O)N(C)[C@@H](C(CC)CC)C(=O)N(C)[C@H](C(=O)N(C)C)CC(=O)N(C)[C@@H](CC3CCC3)C(=O)N[C@@H]([C@@H](C)CC)C(=O)N(C)CC(=O)N(C)[C@H]3C/C=C\CCN(C3=O)[C@@H](Cc3ccc(C)cc3)C(=O)N(C)CC(=O)N[C@@H](CCc3ccc(Cl)c(Cl)c3)C(=O)N2C1 [PP2120] | A (a compound having 10 or more and less than 20 is denoted as A) | AA (a compound having 20 or more is denoted as AA)
11 | CCO[C@@H]1C[C@H]2C(=O)NC3(CC(C)(C)C3)C(=O)N(C)[C@@H](C(CC)CC)C(=O)N(C)[C@H](C(=O)N(C)C)CC(=O)N(C)[C@@H](COC)C(=O)N[C@@H]([C@@H](C)CC)C(=O)N(C)CC(=O)N(C)[C@H]3C/C=C\CCN(C3=O)[C@@H](Cc3ccc(C(F)(F)F)cc3)C(=O)N(C)CC(=O)N[C@@H](CCc3cc(F)c(C(F)(F)F)c(F)c3)C(=O)N2C1 [PP2121] | A (a compound having 10 or more and less than 20 is denoted as A) | AA (a compound having 20 or more is denoted as AA)
12 | CCO[C@@H]1C[C@H]2C(=O)NC3(CC(C)(C)C3)C(=O)N(C)[C@@H](C(CC)CC)C(=O)N(C)[C@H](C(=O)N(C)C)CC(=O)N(C)[C@@H](C(C)C)C(=O)N[C@@H]([C@@H](C)CC)C(=O)N(C)CC(=O)N(C)[C@H]3C/C=C\CCN(C3=O)[C@@H](Cc3ccc(C)cc3)C(=O)N(C)CC(=O)N[C@@H](CCc3ccc(Cl)c(Cl)c3)C(=O)N2C1 [PP2122] | A (a compound having 10 or more and less than 20 is denoted as A) | AA (a compound having 20 or more is denoted as AA)
13 | CCO[C@@H]1C[C@H]2C(=O)NC3(CC(C)(C)C3)C(=O)N(C)[C@@H](C(CC)CC)C(=O)N(C)[C@H](C(=O)N3CCCC3)CC(=O)N(C)[C@@H](COC)C(=O)N[C@@H]([C@@H](C)CC)C(=O)N(C)CC(=O)N(C)[C@H]3C/C=C\CCN(C3=O)[C@@H](Cc3ccc(C(F)(F)F)cc3)C(=O)N(C)CC(=O)N[C@@H](CCc3cc(F)c(C(F)(F)F)c(F)c3)C(=O)N2C1 [PP2123] | A (a compound having 10 or more and less than 20 is denoted as A) | A (a compound having 10 or more and less than 20 is denoted as A)
14 | CCO[C@@H]1C[C@H]2C(=O)NC3(CC(C)(C)C3)C(=O)N(C)[C@@H](C(CC)CC)C(=O)N(C)[C@H](C(=O)N(C)C)CC(=O)N(C)[C@@H](CC3CC3)C(=O)N[C@@H]([C@@H](C)CC)C(=O)N(C)CC(=O)N(C)[C@H]3C/C=C\CCN(C3=O)[C@@H](Cc3ccc(C(F)(F)F)cc3)C(=O)N(C)CC(=O)N[C@@H](CCc3ccc(C(F)(F)F)c(Cl)c3)C(=O)N2C1 [PP2124] | A (a compound having 10 or more and less than 20 is denoted as A) | AA (a compound having 20 or more is denoted as AA)
15 | CCC[C@H]1C(=O)N[C@@H]([C@@H](C)CC)C(=O)N(C)CC(=O)N(C)[C@H]2C/C=C\CCN(C2=O)[C@@H](Cc2ccc(C(F)(F)F)cc2)C(=O)N(C)CC(=O)N[C@@H](CCc2cc(F)c(C(F)(F)F)c(F)c2)C(=O)N2C[C@H](OCC)C[C@H]2C(=O)NC2(CC(C)(C)C2)C(=O)N(C)[C@@H](C(CC)CC)C(=O)N(C)[C@H](C(=O)N(C)C)CC(=O)N1C [PP2125] | A (a compound having 10 or more and less than 20 is denoted as A) | AA (a compound having 20 or more is denoted as AA)
